Active and inactive are the calls of the source.
Experiments:
[1] = target: T1, Sentrin-specific protease 1 (Homo sapiens, UniProt Q9P0U3); assay: Dose response confirmation of small molecule inhibitors of the catalytic domain of the SUMO protease, SENP1 in a FRET assay.; format: functional; details: read-out: IC50_Mean
[2] = target: T2, Polyadenylate-binding protein 1 (Homo sapiens, UniProt P11940); assay: MLLE binding blockers, Cy5 peptide tracer – biochemical, fluorescence polarization, Cy5-PAM2 peptide, secondary, miRNA deadenylation inhibitor project, dose response (AID 602260); format: functional; details: read-out: IC50_Mean
[3] = target: T1, Sentrin-specific protease 1; assay: SENP1 catalytic domain blockers, concentration series – biochemical, kinetic FRET, dose response (AID 651697); format: functional; details: read-out: IC50_Mean
[4] = target: T2, Polyadenylate-binding protein 1; assay: MLLE domain peptide-binding blockers, IC50 – biochemical, fluorescence polarization, FITC-PAM2 peptide, dose response (AID 602259); format: functional; details: read-out: IC50_Mean
[5] = target: Genome polyprotein (dengue virus type 2, UniProt P29990); assay: flavivirus cap methylation enzyme inhibition – biochemical, confirmation dose response, primary screen (AID 588689); format: functional
[6] = cells; format: functional, cell-based
[7] = target: Nuclear receptor subfamily 0 group B member 1 (Homo sapiens, UniProt P51843); format: functional, cell-based;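 further: HEK293T cells transfected with SF-1 and DAX-1 plus StAR promoter luciferase reporter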
[8] = target: T3, Insulin-degrading enzyme (Homo sapiens, UniProt P14735); assay: recombinant IDE activation, cell-free – biochemical, fluorescence polarization, counter-screen for IDE activator project, dose response (AID 588681)
T3 sequence (P14735 whole entry): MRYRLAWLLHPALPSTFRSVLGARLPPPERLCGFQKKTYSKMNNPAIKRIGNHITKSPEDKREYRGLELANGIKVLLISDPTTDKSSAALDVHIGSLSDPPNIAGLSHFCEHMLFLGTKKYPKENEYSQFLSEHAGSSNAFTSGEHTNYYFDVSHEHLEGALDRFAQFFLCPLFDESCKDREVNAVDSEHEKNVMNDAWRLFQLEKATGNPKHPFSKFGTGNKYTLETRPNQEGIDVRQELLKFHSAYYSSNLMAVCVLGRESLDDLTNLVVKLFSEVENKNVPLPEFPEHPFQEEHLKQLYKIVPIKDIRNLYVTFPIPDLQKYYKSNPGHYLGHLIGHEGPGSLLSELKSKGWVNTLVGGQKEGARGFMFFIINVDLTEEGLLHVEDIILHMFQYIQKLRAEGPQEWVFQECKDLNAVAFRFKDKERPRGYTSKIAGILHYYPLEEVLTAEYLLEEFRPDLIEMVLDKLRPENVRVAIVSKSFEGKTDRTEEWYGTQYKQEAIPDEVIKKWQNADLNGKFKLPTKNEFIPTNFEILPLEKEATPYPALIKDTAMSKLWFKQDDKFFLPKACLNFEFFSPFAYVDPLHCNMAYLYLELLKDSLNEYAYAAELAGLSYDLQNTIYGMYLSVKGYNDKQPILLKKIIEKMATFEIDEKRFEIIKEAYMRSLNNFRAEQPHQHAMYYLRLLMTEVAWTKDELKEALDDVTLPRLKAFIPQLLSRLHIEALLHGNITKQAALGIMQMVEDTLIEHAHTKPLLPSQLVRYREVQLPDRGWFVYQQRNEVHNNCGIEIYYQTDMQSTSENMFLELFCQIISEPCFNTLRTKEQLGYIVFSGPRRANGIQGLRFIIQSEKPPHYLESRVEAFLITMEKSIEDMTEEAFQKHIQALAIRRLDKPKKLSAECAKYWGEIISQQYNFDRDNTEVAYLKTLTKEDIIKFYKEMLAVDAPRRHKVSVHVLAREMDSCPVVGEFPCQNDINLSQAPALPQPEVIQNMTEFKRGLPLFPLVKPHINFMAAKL

[9] = target: Beta-lactamase (Salmonella choleraesuis (strain SC-B67), UniProt Q5J463)
[10] = tested on: HEK293; assay: membrane integrity loss in HEK cells – cell-based, fluorescence, cytotoxicity control for IDE activator project, dose response (AID 588440); format: functional; details: Homo sapiens;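 further: cytotoxicity by LDH release measuring loss of membrane integrity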
[11] = tested on: HEK293; assay: optical interference in Abeta FP readout, dose response, artefact control for IDE activator project, biochemical, fluorescence polarization (AID 588442); format: functional, cell-based; details: Homo sapiens
[12] = target: Beta-lactamase (Pseudomonas aeruginosa, UniProt Q79MP6);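 further: biochemical dose-response test of metallo-beta-lactamase enzyme inhibition, read out by epi-absorbance; purified recombinant IMP-1 metallo-beta-lactamase with nitrocefin as substrate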
[13] = target: T3, Insulin-degrading enzyme; assay: cellular IDE activation of Abeta substrate cleavage – fluorescence polarization, HEK cells, dose response (AID 588439); format: functional, cell-based
[14] = target: T4, Low molecular weight phosphotyrosine protein phosphatase (Homo sapiens, UniProt P24666); format: functional; details: read-out: IC50_Mean
T4 sequence (P24666 whole entry): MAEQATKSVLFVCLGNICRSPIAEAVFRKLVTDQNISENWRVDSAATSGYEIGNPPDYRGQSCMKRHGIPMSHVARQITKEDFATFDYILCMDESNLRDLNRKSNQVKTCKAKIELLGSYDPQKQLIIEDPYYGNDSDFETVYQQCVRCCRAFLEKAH

[15] = target: T4, Low molecular weight phosphotyrosine protein phosphatase; format: functional; details: read-out: IC50_Mean; remark: listed apart in the source
[16] = target: T5, Beta-2 adrenergic receptor (Homo sapiens, UniProt P07550); assay: Dose response for HTS for Beta-2AR agonists via FAP method from Powderset3.; format: functional
[17] = target: T5, Beta-2 adrenergic receptor; assay: ADRB2 activation measured by internalization – cell-based, FAP fluorogen, flow cytometry, cherry pick 1, dose response (AID 588763); format: functional
[18] = target: Voltage-dependent T-type calcium channel subunit alpha-1H (Homo sapiens, UniProt O95180); format: functional;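 further: channel activity triggered by adding a high calcium stimulation buffer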
[19] = nonselective StAR promoter luciferase inhibitors – cell-based, luminescence, luciferase reporter, counter-screen for LRH-1 inverse agonist project, dose response (AID 651969); format: functional
[20] = target: Steroidogenic factor 1 (Homo sapiens, UniProt Q13285); assay: Counterscreen for inverse agonists of the liver receptor homolog-1 (LRH-1; NR5A2): Luminescence-based cell-based high throughput dose response assay to identify inverse agonists of the Steroidogenic Factor 1 Nuclear Receptor (SF1; NR5A1).; format: functional
[21] = target: Nuclear receptor subfamily 5 group A member 2 (Homo sapiens, UniProt O00482); format: functional, cell-based;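 further: HEK293T cells transfected with LRH-1 and a StAR promoter luciferase reporter; potency for inhibitors that lower LRH-1 driven reporter light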
[22] = target: T6, Probable nicotinate-nucleotide adenylyltransferase (Staphylococcus aureus (strain N315), UniProt P65502); format: functional, Staphylococcus aureus subsp. aureus N315;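 on IC50 Mean: confirmatory dose-response retesting of NadD inhibitor hits first found in an ultra-high-throughput screen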
[23] = target: T6, Probable nicotinate-nucleotide adenylyltransferase; format: functional, Staphylococcus aureus subsp. aureus N315; details: read-out: IC50_Mean
[24] = target: Induced myeloid leukemia cell differentiation protein Mcl-1 (Homo sapiens, UniProt Q07820); format: functional
[25] = target: Cytochrome P450 3A4 (Homo sapiens, UniProt P08684);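 further: CYP3A4 tested as one member of a cytochrome P450 panel screen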
[26] = target: Long-chain-fatty-acid--AMP ligase FadD28 (Mycobacterium tuberculosis, UniProt P9WQ59); assay: Fluorescence polarization aasay to screen for inhibitors that compete for the binding of FadD28 to a bisubstrate Measured in Biochemical System Using Plate Reader - 2147-01_Inhibitor_Dose_CherryPick_Activity.; format: functional, Mycobacterium tuberculosis H37Rv
[27] = viability loss in HeLa cells – cytotoxicity control for MgcRacGAP inhibitor project, dose response (AID 624300); format: functional
[28] = target: T7, Rac GTPase-activating protein 1 (Homo sapiens, UniProt Q9H0H5); assay: blockers of MgcRacGAP-driven Rac1 GTP hydrolysis – biochemical, ADP Hunter fluorescence, primary and confirmatory, confirmation (AID 624330); format: functional
T7 sequence (Q9H0H5 whole entry): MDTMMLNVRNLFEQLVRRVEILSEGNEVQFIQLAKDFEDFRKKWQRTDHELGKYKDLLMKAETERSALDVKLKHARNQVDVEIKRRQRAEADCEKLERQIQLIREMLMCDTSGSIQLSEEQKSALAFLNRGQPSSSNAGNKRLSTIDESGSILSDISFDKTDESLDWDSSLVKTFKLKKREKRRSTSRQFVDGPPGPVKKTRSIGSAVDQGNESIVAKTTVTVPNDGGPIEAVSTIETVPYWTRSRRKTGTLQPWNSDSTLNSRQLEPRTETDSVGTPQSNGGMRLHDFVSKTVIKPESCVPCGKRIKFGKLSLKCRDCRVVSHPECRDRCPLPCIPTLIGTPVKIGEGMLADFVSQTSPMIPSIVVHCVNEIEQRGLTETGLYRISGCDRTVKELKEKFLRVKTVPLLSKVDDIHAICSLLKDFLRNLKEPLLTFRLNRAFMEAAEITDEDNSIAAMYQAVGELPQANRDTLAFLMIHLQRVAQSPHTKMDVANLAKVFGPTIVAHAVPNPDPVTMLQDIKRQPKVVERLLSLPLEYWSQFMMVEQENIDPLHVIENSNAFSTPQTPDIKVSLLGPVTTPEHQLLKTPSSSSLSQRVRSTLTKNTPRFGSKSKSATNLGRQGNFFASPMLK

[29] = target: Arf-GAP with SH3 domain, ANK repeat and PH domain-containing protein 1 (Homo sapiens, UniProt Q9ULH1); format: functional;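 further: biochemical fluorescence polarization dose–response screen measuring inhibition of ASAP1; ASAP1 GAP domain stimulating GTP hydrolysis by truncated human ARF1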
[30] = HGIII-sPLA2 enzyme inhibition potency – biochemical, QFRET, IC50, dose response (AID 743457);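 further: green fluorescence rise as the enzyme cleaves BODIPY PC-A2 in liposomes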
[31] = target: T8, Histone-lysine N-methyltransferase NSD2 (Homo sapiens, UniProt O96028); format: biochemical
T8 sequence (O96028 whole entry): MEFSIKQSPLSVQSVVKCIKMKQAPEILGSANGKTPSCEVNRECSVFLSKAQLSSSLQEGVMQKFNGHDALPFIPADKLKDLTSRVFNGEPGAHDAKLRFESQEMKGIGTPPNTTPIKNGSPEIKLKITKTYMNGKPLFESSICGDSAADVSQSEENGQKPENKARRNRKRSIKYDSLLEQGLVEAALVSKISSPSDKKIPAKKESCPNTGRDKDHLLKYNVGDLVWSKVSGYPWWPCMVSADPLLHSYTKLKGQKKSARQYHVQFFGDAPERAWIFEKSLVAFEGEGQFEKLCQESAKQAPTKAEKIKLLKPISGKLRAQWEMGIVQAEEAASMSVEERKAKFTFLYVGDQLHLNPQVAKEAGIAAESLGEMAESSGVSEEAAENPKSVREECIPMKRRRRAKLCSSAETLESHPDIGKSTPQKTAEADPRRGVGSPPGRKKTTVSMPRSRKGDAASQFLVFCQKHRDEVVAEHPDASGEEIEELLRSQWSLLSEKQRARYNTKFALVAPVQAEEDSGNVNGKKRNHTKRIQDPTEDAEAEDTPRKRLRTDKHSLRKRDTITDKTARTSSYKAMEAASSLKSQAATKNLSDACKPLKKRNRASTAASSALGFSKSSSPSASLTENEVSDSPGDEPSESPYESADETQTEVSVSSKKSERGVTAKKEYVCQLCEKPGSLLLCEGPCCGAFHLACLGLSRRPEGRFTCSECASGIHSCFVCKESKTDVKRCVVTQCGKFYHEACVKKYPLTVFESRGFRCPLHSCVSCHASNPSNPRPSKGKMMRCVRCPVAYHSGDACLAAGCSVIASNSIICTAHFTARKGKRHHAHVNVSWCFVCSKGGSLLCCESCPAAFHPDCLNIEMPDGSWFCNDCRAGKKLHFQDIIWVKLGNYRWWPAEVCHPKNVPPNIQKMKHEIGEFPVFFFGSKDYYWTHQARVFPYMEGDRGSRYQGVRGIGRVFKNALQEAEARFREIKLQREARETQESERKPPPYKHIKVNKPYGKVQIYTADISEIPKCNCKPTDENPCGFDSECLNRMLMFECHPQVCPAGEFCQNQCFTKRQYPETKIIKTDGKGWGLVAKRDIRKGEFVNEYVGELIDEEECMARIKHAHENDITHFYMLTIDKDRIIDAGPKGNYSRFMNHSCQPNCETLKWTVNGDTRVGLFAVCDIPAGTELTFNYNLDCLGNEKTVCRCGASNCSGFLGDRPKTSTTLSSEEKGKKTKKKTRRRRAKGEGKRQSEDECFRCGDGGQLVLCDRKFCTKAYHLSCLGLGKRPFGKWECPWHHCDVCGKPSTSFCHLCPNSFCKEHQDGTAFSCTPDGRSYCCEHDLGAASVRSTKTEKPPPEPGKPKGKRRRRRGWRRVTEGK

T6 sequence (P65502 whole entry): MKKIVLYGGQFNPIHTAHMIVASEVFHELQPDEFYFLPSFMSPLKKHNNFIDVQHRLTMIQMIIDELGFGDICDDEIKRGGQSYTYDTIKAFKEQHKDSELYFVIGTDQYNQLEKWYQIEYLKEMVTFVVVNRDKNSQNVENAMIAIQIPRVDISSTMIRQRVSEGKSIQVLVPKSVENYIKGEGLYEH
T1 sequence (Q9P0U3 whole entry, the tested form may be a part): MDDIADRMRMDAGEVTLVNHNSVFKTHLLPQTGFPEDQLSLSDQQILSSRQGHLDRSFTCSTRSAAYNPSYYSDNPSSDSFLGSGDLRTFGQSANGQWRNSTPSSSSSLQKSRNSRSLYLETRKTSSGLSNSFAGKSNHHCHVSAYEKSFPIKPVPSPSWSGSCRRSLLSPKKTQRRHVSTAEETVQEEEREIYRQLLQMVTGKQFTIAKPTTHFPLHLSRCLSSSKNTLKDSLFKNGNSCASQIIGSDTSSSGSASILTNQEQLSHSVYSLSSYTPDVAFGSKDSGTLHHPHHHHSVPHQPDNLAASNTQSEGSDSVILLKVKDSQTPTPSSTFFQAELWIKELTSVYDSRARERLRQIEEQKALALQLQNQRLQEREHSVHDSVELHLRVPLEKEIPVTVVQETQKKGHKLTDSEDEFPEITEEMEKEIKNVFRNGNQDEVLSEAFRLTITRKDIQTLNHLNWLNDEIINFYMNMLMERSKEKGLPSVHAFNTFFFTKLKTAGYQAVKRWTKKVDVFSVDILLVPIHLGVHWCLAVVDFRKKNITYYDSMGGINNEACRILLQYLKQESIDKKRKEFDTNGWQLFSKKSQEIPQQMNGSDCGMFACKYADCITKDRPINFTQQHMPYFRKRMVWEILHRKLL
T5 sequence (P07550 whole entry): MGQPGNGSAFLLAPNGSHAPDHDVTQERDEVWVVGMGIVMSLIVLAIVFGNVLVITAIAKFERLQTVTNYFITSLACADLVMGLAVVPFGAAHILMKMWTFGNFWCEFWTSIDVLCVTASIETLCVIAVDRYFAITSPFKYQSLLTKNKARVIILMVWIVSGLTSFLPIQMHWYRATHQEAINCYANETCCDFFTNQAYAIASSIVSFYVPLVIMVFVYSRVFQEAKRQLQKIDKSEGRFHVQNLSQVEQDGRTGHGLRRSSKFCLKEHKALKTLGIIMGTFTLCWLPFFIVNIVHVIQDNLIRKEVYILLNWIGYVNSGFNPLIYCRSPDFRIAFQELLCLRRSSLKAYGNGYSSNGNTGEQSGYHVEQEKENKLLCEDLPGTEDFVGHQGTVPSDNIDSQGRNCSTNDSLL
T2 sequence (P11940 whole entry, the tested form may be a part): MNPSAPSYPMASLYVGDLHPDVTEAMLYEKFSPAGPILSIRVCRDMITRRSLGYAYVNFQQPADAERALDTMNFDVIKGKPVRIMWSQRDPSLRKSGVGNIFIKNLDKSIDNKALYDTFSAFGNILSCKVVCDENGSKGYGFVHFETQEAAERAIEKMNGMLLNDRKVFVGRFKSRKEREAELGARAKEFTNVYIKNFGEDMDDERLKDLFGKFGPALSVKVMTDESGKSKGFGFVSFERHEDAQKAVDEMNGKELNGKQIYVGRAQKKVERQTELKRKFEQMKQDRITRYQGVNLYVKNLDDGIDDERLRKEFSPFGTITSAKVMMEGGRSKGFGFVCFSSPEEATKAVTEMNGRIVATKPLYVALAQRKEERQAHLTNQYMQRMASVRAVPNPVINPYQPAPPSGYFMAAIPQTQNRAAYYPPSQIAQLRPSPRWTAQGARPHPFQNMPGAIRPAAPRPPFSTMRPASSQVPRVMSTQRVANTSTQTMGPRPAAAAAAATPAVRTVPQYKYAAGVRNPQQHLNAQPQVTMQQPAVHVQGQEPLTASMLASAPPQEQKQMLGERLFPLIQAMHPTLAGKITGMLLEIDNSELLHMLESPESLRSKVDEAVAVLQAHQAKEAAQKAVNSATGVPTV
Chain of Nuclear receptor subfamily 5 group A member 2 (O00482 whole entry): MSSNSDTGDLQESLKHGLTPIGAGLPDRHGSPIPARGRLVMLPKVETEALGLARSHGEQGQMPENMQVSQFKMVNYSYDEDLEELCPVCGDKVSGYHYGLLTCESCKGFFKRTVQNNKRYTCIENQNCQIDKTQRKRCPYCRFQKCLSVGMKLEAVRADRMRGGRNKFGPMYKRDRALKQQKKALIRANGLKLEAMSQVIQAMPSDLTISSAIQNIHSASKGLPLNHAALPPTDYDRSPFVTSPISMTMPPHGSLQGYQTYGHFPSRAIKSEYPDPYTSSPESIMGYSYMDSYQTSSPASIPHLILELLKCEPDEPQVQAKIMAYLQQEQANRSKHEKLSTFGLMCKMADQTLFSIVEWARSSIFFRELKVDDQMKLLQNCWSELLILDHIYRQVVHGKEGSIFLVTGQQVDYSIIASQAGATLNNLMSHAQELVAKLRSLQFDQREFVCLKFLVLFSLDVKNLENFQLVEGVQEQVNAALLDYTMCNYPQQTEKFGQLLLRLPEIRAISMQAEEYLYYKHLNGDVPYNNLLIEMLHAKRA
Chain of Long-chain-fatty-acid--AMP ligase FadD28 (P9WQ59 whole entry): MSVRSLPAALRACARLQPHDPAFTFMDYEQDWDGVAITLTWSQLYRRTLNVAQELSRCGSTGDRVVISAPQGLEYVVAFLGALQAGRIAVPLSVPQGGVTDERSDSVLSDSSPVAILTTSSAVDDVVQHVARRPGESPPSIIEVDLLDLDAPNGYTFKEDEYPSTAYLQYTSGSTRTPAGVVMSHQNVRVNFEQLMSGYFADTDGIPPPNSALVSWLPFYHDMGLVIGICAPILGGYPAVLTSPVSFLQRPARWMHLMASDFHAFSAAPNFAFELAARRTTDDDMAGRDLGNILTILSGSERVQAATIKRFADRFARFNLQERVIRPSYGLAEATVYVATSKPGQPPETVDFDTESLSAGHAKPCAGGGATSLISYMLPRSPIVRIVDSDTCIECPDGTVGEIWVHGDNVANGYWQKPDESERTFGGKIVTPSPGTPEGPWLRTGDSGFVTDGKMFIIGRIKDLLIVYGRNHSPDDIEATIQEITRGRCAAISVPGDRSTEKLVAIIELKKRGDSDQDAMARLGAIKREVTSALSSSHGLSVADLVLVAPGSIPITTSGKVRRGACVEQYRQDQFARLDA
Chain of Nuclear receptor subfamily 0 group B member 1 (P51843 whole entry): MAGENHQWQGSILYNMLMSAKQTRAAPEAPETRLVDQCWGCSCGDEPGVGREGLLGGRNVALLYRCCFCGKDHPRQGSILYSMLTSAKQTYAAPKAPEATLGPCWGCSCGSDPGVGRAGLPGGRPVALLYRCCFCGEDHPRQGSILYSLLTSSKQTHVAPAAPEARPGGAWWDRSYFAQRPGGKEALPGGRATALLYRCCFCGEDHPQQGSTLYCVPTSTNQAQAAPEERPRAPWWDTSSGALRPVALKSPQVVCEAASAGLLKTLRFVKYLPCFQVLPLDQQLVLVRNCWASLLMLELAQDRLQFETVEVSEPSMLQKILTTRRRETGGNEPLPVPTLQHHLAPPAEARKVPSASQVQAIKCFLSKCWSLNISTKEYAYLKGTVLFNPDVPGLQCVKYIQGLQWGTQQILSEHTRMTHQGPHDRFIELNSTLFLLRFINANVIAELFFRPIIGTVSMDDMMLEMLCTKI
Chain of Induced myeloid leukemia cell differentiation protein Mcl-1 (Q07820 whole entry): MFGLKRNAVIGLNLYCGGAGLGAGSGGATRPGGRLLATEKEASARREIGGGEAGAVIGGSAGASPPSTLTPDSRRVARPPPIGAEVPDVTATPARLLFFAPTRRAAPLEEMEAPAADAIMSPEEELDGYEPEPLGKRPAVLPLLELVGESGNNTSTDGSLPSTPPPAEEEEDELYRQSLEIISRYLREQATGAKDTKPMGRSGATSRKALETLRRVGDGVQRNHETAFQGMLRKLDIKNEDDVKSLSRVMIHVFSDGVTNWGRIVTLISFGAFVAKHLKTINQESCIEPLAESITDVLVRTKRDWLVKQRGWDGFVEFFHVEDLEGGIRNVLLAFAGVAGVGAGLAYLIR
Chain of Beta-lactamase (Salmonella choleraesuis (strain SC-B67), UniProt Q5J463) (Q5J463 whole entry): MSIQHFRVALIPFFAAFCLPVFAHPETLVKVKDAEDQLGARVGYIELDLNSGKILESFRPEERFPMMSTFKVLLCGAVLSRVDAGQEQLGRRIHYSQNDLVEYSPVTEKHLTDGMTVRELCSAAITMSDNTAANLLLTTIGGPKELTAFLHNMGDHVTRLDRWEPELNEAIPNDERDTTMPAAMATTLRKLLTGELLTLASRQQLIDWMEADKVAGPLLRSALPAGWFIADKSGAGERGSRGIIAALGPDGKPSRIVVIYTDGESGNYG
Chain of Steroidogenic factor 1 (Q13285 whole entry): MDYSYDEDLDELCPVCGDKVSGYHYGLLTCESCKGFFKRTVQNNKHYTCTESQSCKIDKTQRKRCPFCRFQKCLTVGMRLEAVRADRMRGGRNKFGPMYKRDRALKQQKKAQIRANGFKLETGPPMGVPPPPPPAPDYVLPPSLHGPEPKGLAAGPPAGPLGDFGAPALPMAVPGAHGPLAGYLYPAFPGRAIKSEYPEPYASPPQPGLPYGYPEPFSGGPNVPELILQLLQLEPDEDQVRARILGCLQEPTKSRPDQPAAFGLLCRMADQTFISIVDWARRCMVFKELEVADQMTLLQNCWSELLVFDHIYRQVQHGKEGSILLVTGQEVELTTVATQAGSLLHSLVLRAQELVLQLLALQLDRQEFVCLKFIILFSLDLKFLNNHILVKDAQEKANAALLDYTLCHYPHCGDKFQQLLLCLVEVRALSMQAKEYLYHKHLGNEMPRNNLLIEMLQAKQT
Chain of Beta-lactamase (Pseudomonas aeruginosa, UniProt Q79MP6) (Q79MP6 whole entry): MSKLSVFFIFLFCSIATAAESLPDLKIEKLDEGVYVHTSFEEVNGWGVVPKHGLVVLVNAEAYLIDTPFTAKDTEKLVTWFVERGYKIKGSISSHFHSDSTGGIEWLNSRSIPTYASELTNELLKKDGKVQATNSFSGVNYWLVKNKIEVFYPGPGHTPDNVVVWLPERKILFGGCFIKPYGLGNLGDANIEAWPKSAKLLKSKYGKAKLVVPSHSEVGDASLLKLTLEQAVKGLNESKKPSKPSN

Nc1nc(O)cc(N=Nc2ccc(O)cc2)n1
IC50 [1]: 15.4 µM (active) | IC50 [2]: > 66 µM (inactive) | IC50 [3]: 11.6 µM (active) | IC50 [4]: 43.8 µM (inactive) | IC50 [5]: 26.7 µM (active)

O=C1c2ccccc2C(=O)N1CCOc1ccccc1Br
IC50 [6]: > 67.5 µM (inactive) | IC50 [7]: > 67.5 µM (inactive)

N#CC(C#N)=C1C=C2C=C(N3CCOCC3)CCC2CC1 (stereo unspecified)
EC50 [8]: > 54.7 µM (inactive) | IC50 [9]: 1.49 µM (active) | IC50 [10]: > 89.1 µM (inactive) | EC50 [11]: > 54.7 µM (inactive) | IC50 [12]: 6.86 µM (active) | EC50 [13]: > 54.7 µM (inactive)

Nc1ncc2c(n1)CC(c1ccco1)CC2=O (stereo unspecified)
IC50 [14]: 56.8 µM (inactive) | IC50 [15]: 40.5 µM (inactive)

CN(Cc1ccccc1)S(=O)(=O)c1ccc(NS(=O)(=O)Cc2ccccc2)cc1
EC50 [16]: 0.0609 µM (active) | EC50 [17]: 1.25 µM (active) | EC50 [18]: 3.46 µM (active)

NC(=O)C1CCN(C(=O)COc2ccc3c4c(c(=O)oc3c2)CCC4)CC1
IC50 [19]: 35.9 µM (inactive) | IC50 [20]: 35.9 µM (inactive) | IC50 [21]: 35.9 µM (inactive)

O=C(Nc1ccc(S(=O)(=O)Nc2nccs2)cc1)/C(=C/c1ccccc1Cl)NC(=O)c1ccccc1
IC50 [22]: 6.5 µM (active) | IC50 [23]: 22.8 µM (active) | IC50 [24]: 2.73 µM (active)

Cc1cccc(NC(=O)Cn2c(=O)oc3ccccc32)c1
AC50 [25]: 25.1 µM (inconclusive) | AC50 [26]: 5.47 µM (active)

CN(C)c1ccc(/C=C/c2cc[n+](C)c3ccccc23)cc1.[O-][Cl+3]([O-])([O-])[O-]
CC50 [27]: 41.1 µM (active) | IC50 [28]: 36.1 µM (active) | IC50 [29]: 21.4 µM (inactive) | IC50 [30]: 28.6 µM (inactive) | AC50 [31]: 11.7 µM (active)

From ChEMBL document CHEMBL1201862, “PubChem BioAssay data set” (2004)
